This is an account of results in patent US12577245B2, “Sulfonyl benzamide derivatives as Bcl-2 inhibitors” (ASCENTAGE PHARMA (SUZHOU) CO., LTD., priority 2021, dated 2026).

The target in this assay is Bcl-2 G101V (Homo sapiens, UniProt P10415, G101V). In words: Bcl-2 G101V inhibition, fluorescence polarization (Flu-BIM tracer) binding assay. Particulars: FP; 20 nM Bcl2, 5 nM Flu-BIM, 1 h incubation; read-out: Bcl-2 G101V (FP). (In fluorescence polarisation assays a small probe gives low polarisation when free and higher when bound to something large.)
As for `CC1(C)CCC(CN2CCN(c3ccc(C(=O)NS(=O)(=O)c4ccc(NC[C@H]5CC[C@](C)(O)CC5)c([N+](=O)[O-])c4)c(Oc4cnc5[nH]ccc5c4)c3)CC2)=C(c2cc(-c3c(F)cc(C(C)(C)O)cc3F)cs2)C1` [Example 63, 2-((1H-pyrrolo[2,3-b]pyridin-5-yl)oxy)-4-(4-((2-(4-(2,6-difluoro-4-(2-hydroxypropan-2-yl)phenyl)thiophen-2-yl)-4,4-dimethylcyclohex-1-en-1-yl)methyl)piperazin-1-yl)-N-((4-((((1r,4r)-4-hydroxy-4-methylcyclohexyl)methyl)amino)-3-nitrophenyl)sulfonyl)benzamide], the IC50 came out at 32.3 nM.

As to `CC1(C)CCC(CN2CCN(c3ccc(C(=O)NS(=O)(=O)c4ccc(NC[C@H]5COCCO5)c([N+](=O)[O-])c4)c(Oc4cnc5[nH]ccc5c4)c3)CC2)=C(c2cc(-c3c(F)cc(C(C)(C)O)cc3F)cs2)C1` [Example 64, (S)—N-((4-(((1,4-dioxan-2-yl)methyl)amino)-3-nitrophenyl)sulfonyl)-2-((1H-pyrrolo[2,3-b]pyridin-5-yl)oxy)-4-(4-((2-(4-(2,6-difluoro-4-(2-hydroxypropan-2-yl)phenyl)thiophen-2-yl)-4,4-dimethylcyclohex-1-en-1-yl)methyl)piperazin-1-yl)benzamide], the IC50 was determined as 37 nM.

For the compound `CCC(O)(CC)c1cc(F)c(-c2csc(C3=C(CN4CCN(c5ccc(C(=O)NS(=O)(=O)c6ccc(NC[C@H]7CC[C@](C)(O)CC7)c([N+](=O)[O-])c6)c(Oc6cnc7[nH]ccc7c6)c5)CC4)CCC(C)(C)C3)c2)c(F)c1` [Example 67, 2-((1H-pyrrolo[2,3-b]pyridin-5-yl)oxy)-4-(4-((2-(4-(2,6-difluoro-4-(3-hydroxypentan-3-yl)phenyl)thiophen-2-yl)-4,4-dimethylcyclohex-1-en-1-yl)methyl)piperazin-1-yl)-N-((4-((((1r,4r)-4-hydroxy-4-methylcyclohexyl)methyl)amino)-3-nitrophenyl)sulfonyl)benzamide], the IC50 is 33.7 nM.

Take `[2H]C([2H])([2H])C(O)(c1cc(F)c(-c2csc(C3=C(CN4CCN(c5ccc(C(=O)NS(=O)(=O)c6ccc(NC[C@H]7CC[C@](C)(O)CC7)c([N+](=O)[O-])c6)c(Oc6cnc7[nH]ccc7c6)c5)CC4)CCC(C)(C)C3)c2)c(F)c1)C([2H])([2H])[2H]` [Example 68, 2-((1H-pyrrolo[2,3-b]pyridin-5-yl)oxy)-4-(4-((2-(4-(2,6-difluoro-4-(2-hydroxypropan-2-yl-1,1,1,3,3,3-d6)phenyl)thiophen-2-yl)-4,4-dimethylcyclohex-1-en-1-yl)methyl)piperazin-1-yl)-N-((4-((((1r,4r)-4-hydroxy-4-methylcyclohexyl)methyl)amino)-3-nitrophenyl)sulfonyl)benzamide]: the IC50 was 27.8 nM.

For `CC1(C)CCC(CN2CCN(c3ccc(C(=O)NS(=O)(=O)c4ccc(NC[C@H]5CC[C@](C)(O)CC5)c([N+](=O)[O-])c4)c(Oc4cnc5[nH]ccc5c4)c3)CC2)=C(c2cc(-c3c(F)cc(C(C)(O)C4CC4)cc3F)cs2)C1` (stereo partly drawn) [Example 69, 2-((1H-pyrrolo[2,3-b]pyridin-5-yl)oxy)-4-(4-((2-(4-(4-(1-cyclopropyl-1-hydroxyethyl)-2,6-difluorophenyl)thiophen-2-yl)-4,4-dimethylcyclohex-1-en-1-yl)methyl)piperazin-1-yl)-N-((4-((((1r,4r)-4-hydroxy-4-methylcyclohexyl)methyl)amino)-3-nitrophenyl)sulfonyl)benzamide], the IC50 was 29 nM.

As to `CC1(C)CCC(CN2CCN(c3ccc(C(=O)NS(=O)(=O)c4ccc(NC[C@H]5CC[C@](C)(O)CC5)c([N+](=O)[O-])c4)c(Oc4cnc5[nH]ccc5c4)c3)CC2)=C(c2cc(-c3cccc(C(C)(C)O)c3)cs2)C1` [Example 70, 2-((1H-pyrrolo[2,3-b]pyridin-5-yl)oxy)-N-((4-((((1r,4r)-4-hydroxy-4-methylcyclohexyl)methyl)amino)-3-nitrophenyl)sulfonyl)-4-(4-((2-(4-(3-(2-hydroxypropan-2-yl)phenyl)thiophen-2-yl)-4,4-dimethylcyclohex-1-en-1-yl)methyl)piperazin-1-yl)benzamide], the IC50 was 36.9 nM.
